# From the supplement of paper PMC11208160
# Test: recombinant barcode read abundance after kanamycin selection (control-corrected) (log10(CPM+1)); higher = more efficient recombination; sequences stand for … in AGTGCAGAGAAAATCGGCCAGTTTTCTCTGCCTGCAGTCCGCATGCCGT…AGATTTATGCAGCGGACTGCCTTTCTCCCAAAGTGATAAACCGGACAGTATCATGGACCGGTTTTCCCGGTAATCCGTATTTGCAAGGTTGGTTTCACT; site = the 11-nt target
# Outline: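 Duplicate cultures were plated either on chloramphenicol/ampicillin LB agar, serving as control, or on chloramphenicol/ampicillin/kanamycin with 0.1 mM IPTG. These came from a pooled E. coli library co-electroporated with a donor plasmid, each member pairing a target with an IS621 bridge RNA target-binding loop. Recombination efficiency equals averaged, control-corrected counts per million of recombinant-junction barcodes. It is listed as log10(CPM+1).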
# 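Further: IS621 recombinase and bridge RNA in Escherichia coli cells.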
row,Sequence,recombinant barcode read abundance (log10)
1,CCAAGCACTTGGGTTCTAACCTGTTGCCT (site CCAAGCACTAG),0.624
2,CCAAGCACTTGGGTTCTAACCTGTTGCCT (site CCAAGCCCTAG),0.138
3,CCAAGCACTTGGGTTCTAACCTGTTGCCT (site CCAAGCGCTAG),0.0822
4,CCAAGCACTTGGGTTCTAACCTGTTGCCT (site CCAAGCTCTAG),0.172
5,CCAAGGCCTTGGGTTCTAACCTGTTGCCG (site CCAAGGCCTCG),0.0466
6,CCAAGGCCTTGGGTTCTAACCTGTTGCCG (site TTCGCATCTAA),0.208
7,CCAAGGGCTTGGGTTCTAACCTGTTGCGG (site CCAAGGGCTCA),0.628
8,CCAAGGGCTTGGGTTCTAACCTGTTGCGG (site CCAAGGGCTCC),2.52
9,CCAAGGGCTTGGGTTCTAACCTGTTGCGG (site CCAAGGGCTCG),0.094
10,CCAAGGGCTTGGGTTCTAACCTGTTGCGG (site CCAAGGGCTCT),2.18
11,CCAAGTACTTGGGTTCTAACCTGTTGCTT (site CCAAGTACTAA),0.387
12,CCAAGTACTTGGGTTCTAACCTGTTGCTT (site CCACGAACTAA),0.106
13,CCAATGTCTTGGGTTCTAACCTGTTGCGT (site CCAATGTCTAC),1.03
14,CCAATGTCTTGGGTTCTAACCTGTTGCGT (site GTTCGTCCTTG),0.047
15,CCACACACTTGGGTTCTAACCTGTTGCCT (site CAATACACTAG),0.0103
16,CCACACACTTGGGTTCTAACCTGTTGCCT (site CCACACACTAG),0.345
17,CCACCGACTTGGGTTCTAACCTGTTGCCT (site CCACCGACTAG),0.0699
18,CCACCGACTTGGGTTCTAACCTGTTGCCT (site GCACCAACTAG),0.257
19,CCACCGCCTTGGGTTCTAACCTGTTGCCT (site ACACCGCCTAG),0.0161
20,CCACCGCCTTGGGTTCTAACCTGTTGCCT (site CCACCGCCTAG),0.139
21,CCACCGCCTTGGGTTCTAACCTGTTGCCT (site GCACCGCCTAG),0.211
22,CCACCGCCTTGGGTTCTAACCTGTTGCCT (site TCACCGCCTAG),0.0912

row,Sequence,recombinant barcode read abundance (log10)
1,CCACGTTCTTGGGTTCTAACCTGTTGCCT (site CCACGTTCTAG),0.181
2,CCACGTTCTTGGGTTCTAACCTGTTGCCT (site CTACGTTCTAG),0.0541
3,CCACTAGCTTGGGTTCTAACCTGTTGCAG (site AATGGGTCTAA),0
4,CCACTAGCTTGGGTTCTAACCTGTTGCAG (site CCACTAGCTCT),0.85
5,CCACTGCCTTGGGTTCTAACCTGTTGCCT (site CCACTACCTAG),0.734
6,CCACTGCCTTGGGTTCTAACCTGTTGCCT (site CCACTCCCTAG),0.229
7,CCACTGCCTTGGGTTCTAACCTGTTGCCT (site CCACTGCCTAG),0.862
8,CCACTGCCTTGGGTTCTAACCTGTTGCCT (site CCACTTCCTAG),0.0699
9,CCAGAGTCTTGGGTTCTAACCTGTTGCCG (site CCAGAGTCTCG),0.288
10,CCAGAGTCTTGGGTTCTAACCTGTTGCCG (site CCAGAGTCTTG),0.152
11,CCAGATTCTTGGGTTCTAACCTGTTGCCT (site CAAGATTCTAG),0.154
12,CCAGATTCTTGGGTTCTAACCTGTTGCCT (site CCAGATTCTAG),0.206
13,CCAGATTCTTGGGTTCTAACCTGTTGCCT (site CGAGATTCTAG),0.297
14,CCAGATTCTTGGGTTCTAACCTGTTGCCT (site CTAGATTCTAG),0.144
15,CCAGTAGCTTGGGTTCTAACCTGTTGCGG (site CCAGAAGCTAC),0.0355
16,CCAGTAGCTTGGGTTCTAACCTGTTGCGG (site CCAGTAGCTCC),1.01
17,CCAGTATCTTGGGTTCTAACCTGTTGCAT (site CCAGTATCTAT),0.796
18,CCAGTATCTTGGGTTCTAACCTGTTGCAT (site TAGCGGCCTCC),0.0866
19,CCATAGGCTTGGGTTCTAACCTGTTGCTG (site CCATAGGCTCA),0.732
20,CCATAGGCTTGGGTTCTAACCTGTTGCTG (site GAGAGAACTAG),0.0117
21,CCATATGCTTGGGTTCTAACCTGTTGCCT (site AACACGACTGA),0.0524
22,CCATATGCTTGGGTTCTAACCTGTTGCCT (site CCATATGCTAG),0.148

row,Sequence,recombinant barcode read abundance (log10)
1,CCATTCCCTTGGGTTCTAACCTGTTGCTA (site CCATTCCCTTA),0.43
2,CCATTCCCTTGGGTTCTAACCTGTTGCTA (site TTGACGGCTAG),0.0589
3,CCATTGTCTTGGGTTCTAACCTGTTGCCG (site CCATTGTCTCG),0.124
4,CCATTGTCTTGGGTTCTAACCTGTTGCCG (site GTTAGAACTAA),0.128
5,CCGAATTCTTGGGTTCTAACCTGTTGCTT (site CCGAATTCTAA),0.113
6,CCGAATTCTTGGGTTCTAACCTGTTGCTT (site TACCCACCTCT),0.00604
7,CCGAGTCCTTGGGTTCTAACCTGTTGCCT (site CCGAATCCTAG),0.328
8,CCGAGTCCTTGGGTTCTAACCTGTTGCCT (site CCGACTCCTAG),0.303
9,CCGAGTCCTTGGGTTCTAACCTGTTGCCT (site CCGAGTCCTAG),0.246
10,CCGAGTCCTTGGGTTCTAACCTGTTGCCT (site CCGATTCCTAG),1.2
11,CCGATATCTTGGGTTCTAACCTGTTGCCT (site CCGATATCTAG),0.287
12,CCGATATCTTGGGTTCTAACCTGTTGCCT (site CCGCTATCTAG),0.707
13,CCGATATCTTGGGTTCTAACCTGTTGCCT (site CCGGTATCTAG),1.97
14,CCGATATCTTGGGTTCTAACCTGTTGCCT (site CCGTTATCTAG),0.567
15,CCGCAGACTTGGGTTCTAACCTGTTGCCA (site CCGCAGACTTG),0.0394
16,CCGCAGACTTGGGTTCTAACCTGTTGCCA (site TCGCAGACTAG),0.0447
17,CCGCATACTTGGGTTCTAACCTGTTGCCT (site CAGCATACTAG),0.0752
18,CCGCATACTTGGGTTCTAACCTGTTGCCT (site CCGCATACTAG),0.277
19,CCGCATACTTGGGTTCTAACCTGTTGCCT (site CGGCATACTAG),0.0516
20,CCGCATACTTGGGTTCTAACCTGTTGCCT (site CTGCATACTAG),0.559
21,CCGCCGGCTTGGGTTCTAACCTGTTGCCT (site CCGCCAGCTAG),0
22,CCGCCGGCTTGGGTTCTAACCTGTTGCCT (site CCGCCCGCTAG),0.222

row,Sequence,recombinant barcode read abundance (log10)
1,CCGCCGGCTTGGGTTCTAACCTGTTGCCT (site CCGCCGGCTAG),0.146
2,CCGCCGGCTTGGGTTCTAACCTGTTGCCT (site CCGCCTGCTAG),0.0797
3,CCGCCTGCTTGGGTTCTAACCTGTTGCCT (site CCGCCAGCTAG),0.293
4,CCGCCTGCTTGGGTTCTAACCTGTTGCCT (site CCGCCCGCTAG),0.198
5,CCGCCTGCTTGGGTTCTAACCTGTTGCCT (site CCGCCGGCTAG),0.24
6,CCGCCTGCTTGGGTTCTAACCTGTTGCCT (site CCGCCTGCTAG),0.0789
7,CCGCGTCCTTGGGTTCTAACCTGTTGCTA (site CCGCCTCCTTC),0.128
8,CCGCGTCCTTGGGTTCTAACCTGTTGCTA (site CCGCGTCCTTA),0.111
9,CCGCTATCTTGGGTTCTAACCTGTTGCCT (site CCGATATCTAG),0.199
10,CCGCTATCTTGGGTTCTAACCTGTTGCCT (site CCGCTATCTAG),0.379
11,CCGCTATCTTGGGTTCTAACCTGTTGCCT (site CCGGTATCTAG),0.104
12,CCGCTATCTTGGGTTCTAACCTGTTGCCT (site CCGTTATCTAG),0.0555
13,CCGCTCGCTTGGGTTCTAACCTGTTGCCT (site CCGCTCGCTAG),0.146
14,CCGCTCGCTTGGGTTCTAACCTGTTGCCT (site CCGCTTACTAG),0.117
15,CCGTCGTCTTGGGTTCTAACCTGTTGCCT (site CCGTCATCTAG),0.0517
16,CCGTCGTCTTGGGTTCTAACCTGTTGCCT (site CCGTCGTCTAG),0.255
17,CCGTCTACTTGGGTTCTAACCTGTTGCCA (site CCGTCTACTTG),0.121
18,CCGTCTACTTGGGTTCTAACCTGTTGCCA (site TAACTGTCTAA),0.164
19,CCGTCTACTTGGGTTCTAACCTGTTGCTC (site CCGTCTACTAA),0.0412
20,CCGTCTACTTGGGTTCTAACCTGTTGCTC (site CCGTCTACTCA),0.209
